Data as given in US20260028328A1, “HETEROARYL DERIVATIVES AS DDRs INHIBITORS” (CHIESI FARMACEUTICI S.P.A., priority 2022, published 2026).

Tests used:
DDR2 = DDR2 (Homo sapiens (Human), UniProt Q16832); assay: DDR2 binding assay (LanthaScreen Europium Kinase Binding assay); conditions: 5 nM DDR2, 10 nM Kinase Tracer 178, 1 h at rt; Ki from IC50 by Cheng-Prusoff; read-out: Ki DDR2
Procedure: (§1) DDR1 and DDR2 binding assays were performed using Life Technologies LanthaScreen™ Europium Kinase Binding assay. The compounds were incubated with 5 nM DDR1 (Carna Biosciences) or 5 nM DDR2 (Life Technologies) for 1 h at rt in white 384-well OptiPlate (PerkinElmer), containing 20 nM or 10 nM Kinase Tracer 178 respectively and 2 nM Europium labelled anti-GST antibody (Life Technologies) in assay buffer (50 mM HEPES pH 7.5, 10 mM MgCI2, 1 mM EGTA and 0.01% BRIJ35). The ratio of fluorescence emission 665 nm/615 nm after excitation at 340 nm was obtained using the Tecan Spark 20M plate reader. IC50 values were determined in GraphPad Prism 7.0 software, using 4 parameter model: log(inhibitor) vs. response. IC50 values were converted in Ki using the Cheng-Prusoff equation (Ki=IC50/(1+[Tracer]/Kd).

DDR1 = DDR1 (Homo sapiens (Human), UniProt Q08345); assay: DDR1 binding assay (LanthaScreen Europium Kinase Binding assay); conditions: 5 nM DDR1, 20 nM Kinase Tracer 178, 1 h at rt; Ki from IC50 by Cheng-Prusoff; read-out: Ki DDR1
Procedure: as §1

Sequence of DDR2 (Q16832 22-855): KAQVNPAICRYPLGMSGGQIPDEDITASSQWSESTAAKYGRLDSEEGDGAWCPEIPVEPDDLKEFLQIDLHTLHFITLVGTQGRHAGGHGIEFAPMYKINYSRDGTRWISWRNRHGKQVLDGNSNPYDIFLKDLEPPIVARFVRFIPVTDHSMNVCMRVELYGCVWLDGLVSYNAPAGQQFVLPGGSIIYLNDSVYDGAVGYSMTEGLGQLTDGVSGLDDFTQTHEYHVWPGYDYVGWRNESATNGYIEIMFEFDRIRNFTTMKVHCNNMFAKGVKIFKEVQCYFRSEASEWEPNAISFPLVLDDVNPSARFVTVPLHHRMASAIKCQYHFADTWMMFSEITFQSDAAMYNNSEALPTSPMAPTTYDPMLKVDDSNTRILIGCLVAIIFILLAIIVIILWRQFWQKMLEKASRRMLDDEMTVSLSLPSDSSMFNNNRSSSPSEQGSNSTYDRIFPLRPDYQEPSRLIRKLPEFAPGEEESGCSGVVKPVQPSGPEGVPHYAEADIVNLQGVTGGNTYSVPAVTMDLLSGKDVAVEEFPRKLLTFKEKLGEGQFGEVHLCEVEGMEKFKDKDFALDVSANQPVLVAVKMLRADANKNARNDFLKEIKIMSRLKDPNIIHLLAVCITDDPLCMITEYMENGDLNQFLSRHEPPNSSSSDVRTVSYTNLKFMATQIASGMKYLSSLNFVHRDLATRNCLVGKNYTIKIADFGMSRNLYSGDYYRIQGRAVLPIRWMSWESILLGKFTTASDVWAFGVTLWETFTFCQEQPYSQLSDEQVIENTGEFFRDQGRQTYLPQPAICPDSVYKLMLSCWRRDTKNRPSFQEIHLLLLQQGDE
Sequence of DDR1 (Q08345 19-913): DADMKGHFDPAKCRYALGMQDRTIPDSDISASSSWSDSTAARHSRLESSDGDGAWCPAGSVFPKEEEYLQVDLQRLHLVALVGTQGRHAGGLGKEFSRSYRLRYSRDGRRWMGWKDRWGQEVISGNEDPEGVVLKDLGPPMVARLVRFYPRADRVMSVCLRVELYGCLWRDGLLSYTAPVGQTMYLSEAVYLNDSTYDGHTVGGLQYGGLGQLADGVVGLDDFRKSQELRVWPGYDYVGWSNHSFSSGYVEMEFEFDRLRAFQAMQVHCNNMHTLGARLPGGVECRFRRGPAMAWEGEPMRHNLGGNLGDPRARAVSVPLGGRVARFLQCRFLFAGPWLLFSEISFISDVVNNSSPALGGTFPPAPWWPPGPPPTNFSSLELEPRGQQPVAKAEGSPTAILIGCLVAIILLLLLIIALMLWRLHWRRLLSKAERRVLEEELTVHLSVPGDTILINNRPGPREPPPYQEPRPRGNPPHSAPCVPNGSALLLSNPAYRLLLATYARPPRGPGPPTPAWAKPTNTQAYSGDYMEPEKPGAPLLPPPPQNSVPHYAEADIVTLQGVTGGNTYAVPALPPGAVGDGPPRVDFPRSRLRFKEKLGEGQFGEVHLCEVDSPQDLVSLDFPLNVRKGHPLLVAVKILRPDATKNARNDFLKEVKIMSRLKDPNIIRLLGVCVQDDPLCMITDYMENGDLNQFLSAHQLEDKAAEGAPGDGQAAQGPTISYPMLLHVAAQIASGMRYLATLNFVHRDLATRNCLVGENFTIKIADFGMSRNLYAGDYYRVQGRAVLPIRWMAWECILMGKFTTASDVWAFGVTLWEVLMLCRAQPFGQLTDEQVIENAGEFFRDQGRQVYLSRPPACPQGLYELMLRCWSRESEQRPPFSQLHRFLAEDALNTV

| Structure (SMILES) | Ki (DDR2) | Ki (DDR1) |
| --- | --- | --- |
| Cc1ccc(C(=O)Nc2cc(C(C)(C)C)on2)cc1OC1CN(c2cnn3ccncc23)C1 [Example 155, N-(5-(tert-butyl)isoxazol-3-yl)-4-methyl-3-((1-(pyrazolo[1,5-a]pyrazin-3-yl)azetidin-3-yl)oxy)benzamide] | < 5 nM | < 5 nM |
| Cc1ccc(C(=O)Nc2cncc(OC(F)(F)F)c2)cc1OC1CN(c2cnn3ccncc23)C1 [Example 157, 4-methyl-3-((1-(pyrazolo[1,5-a]pyrazin-3-yl)azetidin-3-yl)oxy)-N-(5-(trifluoromethoxy)pyridin-3-yl)benzamide] | < 5 nM | < 5 nM |
| COc1ccc(OC(F)(F)F)cc1NC(=O)c1ccc(C)c(OC2CN(c3cnn4ccncc34)C2)c1 [Example 158, N-(2-methoxy-5-(trifluoromethoxy)phenyl)-4-methyl-3-((1-(pyrazolo[1,5-a]pyrazin-3-yl)azetidin-3-yl)oxy)benzamide] | 5 to 25 nM | < 5 nM |
| Cc1ccc(OC(F)(F)F)cc1NC(=O)c1ccc(C)c(OC2CN(c3cnn4ccncc34)C2)c1 [Example 159, 4-methyl-N-(2-methyl-5-(trifluoromethoxy)phenyl)-3-((1-(pyrazolo[1,5-a]pyrazin-3-yl)azetidin-3-yl)oxy)benzamide] | 5 to 25 nM | < 5 nM |
| Cc1ccc(C(=O)Nc2cc(C(F)(F)F)ccc2Cl)cc1OC1CN(c2cnn3ccncc23)C1 [Example 160, N-(2-chloro-5-(trifluoromethyl)phenyl)-4-methyl-3-((1-(pyrazolo[1,5-a]pyrazin-3-yl)azetidin-3-yl)oxy)benzamide] | 5 to 25 nM | < 5 nM |
| Cc1ccc(C(=O)Nc2cc(F)cc(C(F)(F)F)c2)cc1OC1CN(c2cnn3ccncc23)C1 [Example 162, N-(3-fluoro-5-(trifluoromethyl)phenyl)-4-methyl-3-((1-(pyrazolo[1,5-a]pyrazin-3-yl)azetidin-3-yl)oxy)benzamide] | < 5 nM | < 5 nM |
| Cc1ccc(C(=O)Nc2cncc(C(F)(F)F)c2)cc1OC1CN(c2cncc(C(F)F)c2)C1 [Example 165, 3-((1-(5-(difluoromethyl)pyridin-3-yl)azetidin-3-yl)oxy)-4-methyl-N-(5-(trifluoromethyl)pyridin-3-yl)benzamide] | 5 to 25 nM | < 5 nM |
| Cc1ccc(C(=O)Nc2cncc(C(F)(F)F)c2)cc1OC1CN(c2cnn3ccc(N4CCN(C)CC4)nc23)C1 [Example 166, 4-methyl-3-((1-(5-(4-methylpiperazin-1-yl)pyrazolo[1,5-a]pyrimidin-3-yl)azetidin-3-yl)oxy)-N-(5-(trifluoromethyl)pyridin-3-yl)benzamide] | 5 to 25 nM | < 5 nM |
| Cc1ccn2ncc(N3CC(Oc4cc(C(=O)Nc5cncc(C(F)(F)F)c5)ccc4C)C3)c2n1 [Example 167, 4-methyl-3-((1-(5-methylpyrazolo[1,5-a]pyrimidin-3-yl)azetidin-3-yl)oxy)-N-(5-(trifluoromethyl)pyridin-3-yl)benzamide] | 5 to 25 nM | < 5 nM |
| Cc1ccc(C(=O)Nc2cncc(C(F)(F)F)c2)cc1OC1CN(c2cnn3ccc(N4CCOCC4)nc23)C1 [Example 170, 4-methyl-3-((1-(5-morpholinopyrazolo[1,5-a]pyrimidin-3-yl)azetidin-3-yl)oxy)-N-(5-(trifluoromethyl)pyridin-3-yl)benzamide] | 5 to 25 nM | < 5 nM |
| Cc1ccc(C(=O)Nc2cncc(C(F)(F)F)c2)cc1C(C)C1CN(c2cnn3ccncc23)C1 (centres unmarked) [Example 172, 4-methyl-3-(1-(1-(pyrazolo[1,5-a]pyrazin-3-yl)azetidin-3-yl)ethyl)-N-(5-(trifluoromethyl)pyridin-3-yl)benzamide] | 5 to 25 nM | < 5 nM |
| Cc1ccc(C(=O)Nc2cncc(C(F)(F)F)c2)cc1OC1CN(c2ncnc3[nH]cc(C#N)c23)C1 [Example 173, 3-((1-(5-cyano-7H-pyrrolo[2,3-d]pyrimidin-4-yl)azetidin-3-yl)oxy)-4-methyl-N-(5-(trifluoromethyl)pyridin-3-yl)benzamide] | 5 to 25 nM | < 5 nM |
| Cc1ccc(C(=O)Nc2cncc(C(F)(F)F)c2)cc1OC1CN(c2cnccc2C#N)C1 [Example 174, 3-((1-(4-cyanopyridin-3-yl)azetidin-3-yl)oxy)-4-methyl-N-(5-(trifluoromethyl)pyridin-3-yl)benzamide] | < 5 nM | < 5 nM |
| Cc1ccc(C(=O)Nc2cncc(C(F)(F)F)c2)cc1S(=O)(=O)C1CN(c2cnn3ccncc23)C1 [Example 179, 4-methyl-3-((1-(pyrazolo[1,5-a]pyrazin-3-yl)azetidin-3-yl)sulfonyl)-N-(5-(trifluoromethyl)pyridin-3-yl)benzamide] | 25 to 100 nM | 5 to 25 nM |
| O=C(Nc1cncc(C(F)(F)F)c1)c1ccc(OC(F)F)c(OC2CN(c3cnn4ccncc34)C2)c1 [Example 182, 4-(difluoromethoxy)-3-((1-(pyrazolo[1,5-a]pyrazin-3-yl)azetidin-3-yl)oxy)-N-(5-(trifluoromethyl)pyridin-3-yl)benzamide] | < 5 nM | < 5 nM |

Second part, the molecule after the results:

| Ki (DDR2) | Ki (DDR1) | Structure (SMILES) |
| --- | --- | --- |
| 5 to 25 nM | < 5 nM | COc1ccc(C(F)(F)F)cc1NC(=O)c1ccc(C)c(OC2CN(c3cnn4ccncc34)C2)c1 [Example 153, N-(2-methoxy-5-(trifluoromethyl)phenyl)-4-methyl-3-((1-(pyrazolo[1,5-a]pyrazin-3-yl)azetidin-3-yl)oxy)benzamide] |
| < 5 nM | < 5 nM | Cc1ccc(C(=O)Nc2cc(C(C)(C)C)n(C)n2)cc1OC1CN(c2cnn3ccncc23)C1 [Example 154, N-(5-(tert-butyl)-1-methyl-1H-pyrazol-3-yl)-4-methyl-3-((1-(pyrazolo[1,5-a]pyrazin-3-yl)azetidin-3-yl)oxy)benzamide] |
| 5 to 25 nM | < 5 nM | Cc1ccc(C(=O)Nc2cc(C(C)(C)C)n(C)n2)cc1NC1CN(c2cnn3ccncc23)C1 [Example 156, N-(5-(tert-butyl)-1-methyl-1H-pyrazol-3-yl)-4-methyl-3-((1-(pyrazolo[1,5-a]pyrazin-3-yl)azetidin-3-yl)amino)benzamide] |
| < 5 nM | < 5 nM | Cc1ccc(C(=O)Nc2cccc(OC(F)(F)F)c2)cc1OC1CN(c2cnn3ccncc23)C1 [Example 161, 4-methyl-3-((1-(pyrazolo[1,5-a]pyrazin-3-yl)azetidin-3-yl)oxy)-N-(3-(trifluoromethoxy)phenyl)benzamide] |
| 5 to 25 nM | 5 to 25 nM | Cc1ccc(C(=O)Nc2cc(C(C)(C)C)nn2C)cc1OC1CN(c2cnn3ccncc23)C1 [Example 163, N-(3-(tert-butyl)-1-methyl-1H-pyrazol-5-yl)-4-methyl-3-((1-(pyrazolo[1,5-a]pyrazin-3-yl)azetidin-3-yl)oxy)benzamide] |
| < 5 nM | < 5 nM | Cc1ccc(C(=O)Nc2cccc(CC(F)(F)F)c2)cc1OC1CN(c2cnn3ccncc23)C1 [Example 164, 4-methyl-3-((1-(pyrazolo[1,5-a]pyrazin-3-yl)azetidin-3-yl)oxy)-N-(3-(2,2,2-trifluoroethyl)phenyl)benzamide] |
| < 5 nM | < 5 nM | Cc1ccc(C(=O)Nc2cncc(C(F)(F)F)c2)cc1OC1CN(c2cnn3ccccc23)C1 [Example 168, 4-methyl-3-((1-(pyrazolo[1,5-a]pyridin-3-yl)azetidin-3-yl)oxy)-N-(5-(trifluoromethyl)pyridin-3-yl)benzamide] |
| 5 to 25 nM | < 5 nM | Cc1ccc(C(=O)Nc2cncc(C(F)(F)F)c2)cc1OC1CN(c2cncc3c2cnn3C)C1 [Example 169, 4-methyl-3-((1-(1-methyl-1H-pyrazolo[3,4-c]pyridin-4-yl)azetidin-3-yl)oxy)-N-(5-(trifluoromethyl)pyridin-3-yl)benzamide] |
| < 5 nM | < 5 nM | Cc1ccc(C(=O)Nc2cncc(C(F)(F)F)c2)cc1CC1CN(c2cnn3ccncc23)C1 [Example 171, 4-methyl-3-((1-(pyrazolo[1,5-a]pyrazin-3-yl)azetidin-3-yl)methyl)-N-(5-(trifluoromethyl)pyridin-3-yl)benzamide] |
| < 5 nM | < 5 nM | Cc1ccc(C(=O)Nc2cncc(C(F)(F)F)c2)cc1SC1CN(c2cnn3ccncc23)C1 [Example 178, 4-methyl-3-((1-(pyrazolo[1,5-a]pyrazin-3-yl)azetidin-3-yl)thio)-N-(5-(trifluoromethyl)pyridin-3-yl)benzamide] |
| > 100 nM | 5 to 25 nM | Cc1ccc(C(=O)Nc2cncc(C(F)(F)F)c2)cc1OC1CN(c2cnn3ccc(N4CCC(CO)CC4)nc23)C1 [Example 180, 3-((1-(5-(4-(hydroxymethyl)piperidin-1-yl)pyrazolo[1,5-a]pyrimidin-3-yl)azetidin-3-yl)oxy)-4-methyl-N-(5-(trifluoromethyl)pyridin-3-yl)benzamide] |
| 5 to 25 nM | < 5 nM | O=C(Nc1cncc(C(F)(F)F)c1)c1ccc(OC(F)F)c(NC2CN(c3cnn4ccncc34)C2)c1 [Example 181, 4-(difluoromethoxy)-3-((1-(pyrazolo[1,5-a]pyrazin-3-yl)azetidin-3-yl)amino)-N-(5-(trifluoromethyl)pyridin-3-yl)benzamide] |
| 5 to 25 nM | < 5 nM | COc1ccc(C(=O)Nc2cncc(C(F)(F)F)c2)cc1NC1CN(c2cnn3ccncc23)C1 [Example 183, 4-methoxy-3-((1-(pyrazolo[1,5-a]pyrazin-3-yl)azetidin-3-yl)amino)-N-(5-(trifluoromethyl)pyridin-3-yl)benzamide] |
